Structures can show the parent of a compound that is named as a salt.
Legend:
[1] = molecular target: neuronal nicotinic acetylcholine receptors; experiment: Displacement of [3H]-cytisine from nicotinic acetylcholine receptors, crude synaptic membrane preparations from whole rat brain; settings: [3H]-cytisine 1.25 nM, whole rat brain membranes, 60 minutes at 4° C.; IC50 converted to Ki by Cheng and Prusoff; read-out: Binding to Neuronal Nicotinic Acetylcholine Receptors (Binding)
Protocol: For the purpose of identifying compounds as cholinergic agents which are capable of interacting with nicotinic acetylcholine receptors in the brain, a ligand-receptor binding assay was carried out as the initial screen. Compounds of the present invention were effective at interacting with neuronal nicotinic acetylcholine receptors as assayed for their ability to displace radioligand from neuronal nicotinic acetylcholine channel receptors labeled with [^3 H]-cytisine ([^3 H]-CYT).
Displacement of [^3 H]-CYT from nicotinic acetylcholine receptors was determined using crude synaptic membrane preparations from whole rat brain (Pabreza et al., Molecular Pharmacol., 1990, 39: 9). Washed membranes were stored at -80° C. prior to use. Frozen aliquots were slowly thawed and resuspended in 20 volumes of buffer (containing: 120 mM NaCl, 5 mM KCl, 2 mM MgCl2, 2 mM CaCl2 and 50 mM Tris-Cl, pH 7.4 @4° C.). After centrifuging at 20,000×g for 15 minutes, the pellets were resuspended in 30 volumes of buffer. Homogenate (containing 125-150 μg protein) was added to triplicate tubes containing concentrations of test compound and [^3 H]-CYT (1.25 nM) in a final volume of 500 μL. Samples were incubated for 60 minutes at 4° C., then rapidly filtered through Whatman GF/B filters presoaked in 0.5% polyethylimine using 3×4 mL of ice-cold buffer. The filters are counted in 4 mL of Ecolume® (ICN). Nonspecific binding was determined in the presence of 10 μM (-)-nicotine and values were expressed as a percentage of total binding.

[2] = test system: neuronal nicotinic acetylcholine receptors; experiment: 86Rb+ efflux assay in IMR-32 human neuroblastoma cells (activation or inhibition of neuronal nicotinic acetylcholine receptors); assay type: cell-based; settings: for IMR-32 % response (conc.): relative to the response elicited by 100 μM (S)-nicotine; for IMR-32 % Inhibition (conc.): inhibition of the efflux elicited by 100 μM (S)-nicotine
Protocol: Cells of the IMR-32 human neuroblastoma clonal cell line (ATCC, Rockville, Md.) were maintained in a log phase of growth according to established procedures (Lukas, 1993). Experimental cells were seeded at a density of 500,000 cells/mL into a 24-well tissue culture dish. Plated cells were allowed to proliferate for at least 48 hours before loading with 2 μCi/mL of ^86 Rb^+ (35 Ci/mmol) overnight at 37° C. The ^86 Rb^+ efflux assays were performed according to previously published protocols (Lukas, R. J., J. Pharmacol. Exp. Ther., 265: 294-302, 1993) except serum-free Dulbecco's Modified Eagle's Medium was used during the ^86 Rb^+ loading, rinsing, and agonist-inducedefflux steps.
Responses (reported as percent relative to the response elicited by 100 μM (S)-nicotine) are shown for the indicated concentrations of selected compounds of the invention. The inhibition data (given for other selected compounds) reflect inhibition of the efflux elicited by 100 μM (S)-nicotine at the indicated concentration. […] This finding is in agreement with the results of others who have linked dopamine release, which is dependent upon the ion flux in synaptic transmission, to binding at nicotinic receptors (cf., for example, Lippiello and Caldwell, U.S. Pat. No. 5,242,935, issued Sep. 7, 1993; Caldwell and Lippiello, U.S. Pat. No. 5,248,690, issued Sep. 28, 1993; and Wonnacott et al., Prog. Brain Res., 79: 157-163 (1989)).

Cc1cc(C23CCCN2CCC3)on1.Cl [Example 1, 7a-(3-methyl-5-isoxazolyl)-hexahydro-1H-pyrrolizine hydrochloride]
Ki [1]: 0.97 nM
IMR-32 % response (conc.) ([2]; 10 μM): 110%

Cc1cc(C23CCCN2CCC3)[nH]n1 [Example 2, 7a-(1H-3-methyl-5-pyrazolyl)-hexahydro-1H-pyrrolizine dihydrochloride]
Ki [1]: 70 nM

Cl.c1cncc(C23CCCN2CCC3)c1 [Example 3, 7a-(3-pyridinyl)-hexahydro-1H-pyrrolizine hydrochloride]
Ki [1]: 0.38 nM
IMR-32 % response (conc.) ([2]; 10 μM): 71%

Cl.Cl.c1ccc2ncc(C34CCCN3CCC4)cc2c1 [Example 4, 7a-(3-quinolinyl)-hexahydro-1H-pyrrolizine dihydrochloride]
Ki [1]: 4.3 nM
IMR-32 % response (conc.) ([2]; 10 μM): 40%

Cl.Clc1ccc(C23CCCN2CCC3)cn1 [Example 5, 7a-(6-chloro-3-pyridinyl)-hexahydro-1H-pyrrolizine hydrochloride]
Ki [1]: 0.1 nM
IMR-32 % response (conc.) ([2]; 1 μM): 82%

Fc1ncccc1C12CCCN1CCC2 [Example 6, 7a-(2-fluoro-3-pyridinyl)-hexahydro-1H-pyrrolizine hydrochloride salt]
Ki [1]: 5.7 nM

Clc1ncccc1C12CCCN1CCC2 [Example 7, 7a-(2-chloro-3-pyridinyl)-hexahydro-1H-pyrrolizine hydrochloride]
Ki [1]: 436 nM

Cl.Clc1cc(C23CCCN2CCC3)cnc1Cl [Example 8, 7a-(5,6-dichloro-3-pyridinyl)-hexahydro-1H-pyrrolizine hydrochloride]
Ki [1]: 0.055 nM
IMR-32 % response (conc.) ([2]; 1 μM): 71%

Cl.c1ncc(C23CCCN2CCC3)cn1 [Example 9, 7a-(5-pyrimidinyl)-hexahydro-1H-pyrrolizine hydrochloride]
Ki [1]: 3.7 nM
IMR-32 % response (conc.) ([2]; 100 μM): 39%

Cl.Fc1ccc(C23CCCN2CCC3)c(F)n1 [Example 10, 7a-(2,6-difluoro-3-pyridinyl)-hexahydro-1H-pyrrolizine hydrochloride]
Ki [1]: 2.9 nM
IMR-32 % Inhibition (conc.) ([2]; 10 μM): 12%
IMR-32 % response (conc.) ([2]; 10 μM): 13%

Clc1ccc(C23CCCN2CCC3)c(Cl)n1 [Example 11, 7a-(2,6-dichloro-3-pyridinyl)-hexahydro-1H-pyrrolizine hydrochloride salt]
Ki [1]: 1420 nM

Cl.Fc1ccc(C23CCCN2CCC3)cn1 [Example 12, 7a-(6-fluoro-3-pyridinyl)-hexahydro-1H-pyrrolizine hydrochloride salt]
Ki [1]: 0.27 nM
IMR-32 % response (conc.) ([2]; 10 μM): 93%

CCc1cc(C23CCCN2CCC3)on1.Cl [Example 13, 7a-(3-ethyl-5-isoxazolyl)-hexahydro-1H-pyrrolizine hydrochloride salt]
Ki [1]: 1.4 nM
IMR-32 % response (conc.) ([2]; 100 μM): 108%

CCCc1cc(C23CCCN2CCC3)on1.Cl [Example 14, 7a-(3-propyl-5-isoxazolyl)-hexahydro-1H-pyrrolizine hydrochloride salt]
Ki [1]: 1.7 nM
IMR-32 % response (conc.) ([2]; 100 μM): 74%

c1ccc(Cc2cc(C34CCCN3CCC4)on2)cc1 [Example 15, 7a-(3-benzyl-5-isoxazolyl)-hexahydro-1H-pyrrolizine hydrochloride salt]
Ki [1]: 4 nM

Cl.Oc1cncc(C23CCCN2CCC3)c1 [Example 16, 7a-(3-hydroxy-5-pyridinyl)-hexahydro-1H-pyrrolizine hydrochloride salt]
Ki [1]: 1.4 nM
IMR-32 % response (conc.) ([2]; 100 μM): 53%

c1ccc(COc2cncc(C34CCCN3CCC4)c2)cc1 [Example 16b, 7a-(3-benzyloxy-5-pyridinyl)-hexahydro-1H-pyrrolizine]
Ki [1]: 0.27 nM

Brc1cncc(C23CCCN2CCC3)c1.Cl [Example 17, 7a-(5-bromo-3-pyridinyl)-hexahydro-1H-pyrrolizine hydrochloride salt]
Ki [1]: 0.61 nM
IMR-32 % response (conc.) ([2]; 10 μM): 41%

Cc1cc(C23CCCN2CCC3)cnc1F.Cl [Example 18, 7a-(6-fluoro-5-methyl-3-pyridinyl)hexahydro-1H-pyrrolizine hydrochloride salt]
Ki [1]: 0.11 nM
IMR-32 % response (conc.) ([2]; 10 μM): 66%

Cc1cc(C23CCCN2CCC3)cnc1Cl.Cl [Example 19, 7a-(6-chloro-5-methyl-3-pyridinyl)-hexahydro-1H-pyrrolizine hydrochloride salt]
Ki [1]: 0.05 nM
IMR-32 % response (conc.) ([2]; 1 μM): 91%

Cc1ccc(C23CCCN2CCC3)cn1.Cl [Example 20, 7a-(6-methyl-3-pyridinyl)-hexahydro-1H-pyrrolizine hydrochloride salt]
Ki [1]: 0.56 nM
IMR-32 % response (conc.) ([2]; 1 μM): 98%

Cc1cncc(C23CCCN2CCC3)c1.Cl [Example 21, 7a-(5-methyl-3-pyridinyl)-hexahydro-1H-pyrrolizine hydrochloride salt]
Ki [1]: 0.33 nM
IMR-32 % response (conc.) ([2]; 1 μM): 56%

Cl.Fc1ncc(C23CCCN2CCC3)cc1Br [Example 22, 7a-(5-bromo-6-fluoro-3-pyridinyl)-hexahydro-1H-pyrrolizine hydrochloride salt]
Ki [1]: 0.22 nM
IMR-32 % response (conc.) ([2]; 10 μM): 42%

Cl.Fc1ncc(C23CCCN2CCC3)cc1Cl [Example 23, 7a-(5-chloro-6-fluoro-3-pyridinyl)-hexahydro-1H-pyrrolizine hydrochloride salt]
Ki [1]: 0.23 nM
IMR-32 % response (conc.) ([2]; 10 μM): 68%

Cc1ccncc1C12CCCN1CCC2.Cl [Example 24, 7a-(4-methyl-3-pyridinyl)-hexahydro-1H-pyrrolizine hydrochloride salt]
Ki [1]: 72 nM
IMR-32 % Inhibition (conc.) ([2]; 10 μM): 14%
IMR-32 % response (conc.) ([2]; 100 μM): 0%

c1ccc(-c2cncc(C34CCCN3CCC4)c2)cc1 [Example 25, 7a-(5-phenyl-3-pyridinyl)-hexahydro-1H-pyrrolizine hydrochloride salt]
Ki [1]: 0.25 nM

— US5733912A, “7A-heterocycle substituted hexahydro-1H-pyrrolizine compounds useful in controlling chemical synaptic transmission” (Abbott Laboratories, priority 1997, dated 1998)
